This is an account of results in patent US20240156931A1, “COLLECTION AND USES OF TISSUE RESIDENT INTERSTITIAL EXTRACELLULAR VESICLES” (priority 2022, published 2024).

One assay has as its system eGFP-4T1 cells. The assay can be described thus: Mitophagy induction / mitochondrial EV fluorescent labelling (CCCP perturbation). The assay is classed as cell-based, murine. The source says: To further verify that PINK1-associated EVs contained mitochondrial components via a orthogonal methods, we performed a functional perturbation in vitro to induce the cellular release of mitophagy-associated EVs. We treated sub-confluent eGFP-4T1 cells with a mitochondrial depolarization protonophore carbonyl cyanide m-chlorophenyl hydrazone (CCCP) (Villa et al., 2017) and added a permanent fluorescent label for active mitochondrial membranes with MitoTracker Deep Red (MTDR) (Chazotte, 2011). After 48 h, the cells reached 70% confluency and were harvested by differential ultracentrifugation.
Two 4T1-eGFP cell cultures were plated at 10^6 cells/ml. Untreated cells were left to grow for 5 days. Treated cells were stimulated with 10 nM of carbonyl cyanide 3-chlorophenylhydrazone (CCCP) (Sigma) and left to grow for 5 days. The supernatants were collected and EVs fractions were isolated by differential ultracentrifugation. The resulting 100K EVs were probed for anti-ARIH1 (Santa Cruz) by Western blot.
Two 4T1-eGFP-Puro cell cultures were plated at 10^6 cells/ml. Untreated cells were left to grow for 48 h. Treated cells were stimulated with 10 nM and 10 μM of CCCP and left to grow for 48 h. At 48 h, 50 nM of MitoTracker Deep Red (MTDR) (Thermo Fisher) was added to the media and left to sit overnight in the cell incubator. The supernatants were collected and EVs were isolated by differential ultracentrifugation. EVs subpopulations were plated at 30 μl and scanned for peak emission fluorescent intensity fluorescence at […] (absorbance/emission) for GFP and 635/675 nm (absorbance/emission) for MTDR on a Tecan safire2 plate reader.

Another assay concerns irradiated tumor. As to conditions: mice; cited from earlier work.
The test system of assay [1] is Ovarian Cancer tumor cells. Nature of the assay: EVs released by ovarian cancer cells undergoing cisplatin treatment (Western blot, RPPA). Format: cell-based. Here is the method: A) Ovarian Cancer tumor cells are treated with pulses of cisplatin, a common ovarian cancer therapeutic. EVs released by the cancer cells undergoing cisplatin treatment are isolated by differential ultracentrifugation and analyzed via Western Blot, mass spectrometry, and reverse phase protein array in order to determine potential pathways and markers that are indicative of cancer resistance. […] Additionally, the subpopulations are present with typical EV related tetraspanin markers.
In an embodiment, RPPA assays previously used for tissue lysates can be adapted for use with EV subpopulations.

Each structure is given as a SMILES string. “Also recorded” adds a separate entry of the source.

Regarding `N#CC(C#N)=NNc1cccc(Cl)c1` [CCCP, carbonyl cyanide m-chlorophenyl hydrazone], the “MitoTracker Deep Red (MTDR) in 100K EVs” value in the assay on eGFP-4T1 cells (MTDR fluorescence normalized to GFP by EV subpopulation) was “increased release of 100K EVs containing active mitochondrial molecules; also recorded: increasing levels”. Also, in the assay with eGFP-4T1 cells (compared to no treatment, Western blot), the “ARIH1 presence in the 100K EVs” value is listed as “induced ARIH1 presence”. In the assay with eGFP-4T1 cells (increasing CCCP up to 10 μM (cytotoxic level), 48 h, Western blot), the “release of CD81+/PINK1+ 100K EVs” value was “release of increased Parkin-independent mitophagy-containing 100K EVs; also recorded: increased release of CD81+/PINK1+ 100K EVs in a dose dependent manner; also recorded: increased export of PINK1 and MitoTracker”.

For `CCN(CC)CCCC(C)Nc1ccnc2cc(Cl)ccc12` (centres unmarked) [chloroquine], in the assay with irradiated tumor, the “response to radiation therapy” value was “improves response”.

Regarding `N.N.[Cl][Pt][Cl]` [cisplatin], the “RPPA ratio pre to post treatment, EGFR (pY1068) and Bax pathways” value in assay [1] (2K EV population) was “greatly increased”. For the same compound, in assay [1] (10K EV population), the “RPPA ratio pre to post treatment, Akt” value was 11 fold. Besides, in assay [1] (100K EV population), the “RPPA pathways altered after treatment” value is recorded as “few pathways were altered”. Further, the “LC3-I/II (autophagy) and PD-L1 in EV subpopulations, Western blot” value in assay [1] (post-treatment EVs compared to pre-treatment) is “upregulating”.
